Laboratory results from ChEMBL document CHEMBL5365521, “Discovery of the Potent and Selective Inhaled Janus Kinase 1 Inhibitor AZD4604 and Its Preclinical Characterization” (J Med Chem, 2023).
Converted amounts (≈) assume the structure as drawn. The source made the active and inactive calls. No cut-off for these calls is given here.

Key:
[1] = Toxicity in human CD4+ T cell assessed as reduction in cell viability measured after 5 days by eFluor780 staining based flow cytometry analysis; details: 120 h, dose 1-10000 nM, time 5 day
CD4+ T cell = assay: Antiinflammatory activity in human CD4+ T cell assessed as reduction in CD25 expression measured after 5 days by eFluor780 staining based flow cytometry analysis; format: functional; details: dose 1-10000 nM, time 5.0 day
Th1 cell = assay: Inhibition of human naive Th1 cell differentiation assessed as decrease in IFNg production measured after 5 days by MSD assay; format: functional, cell-based; details: dose 1-10000 nM, time 5.0 day
Th2 cell [2] = assay: Inhibition of human naive Th2 cell differentiation assessed as decrease in IL-4 production measured after 5 days by MSD assay; format: functional, cell-based; details: dose 1-10000 nM, time 5.0 day
Th17 = assay: Inhibition of human memory-derived Th17 cell differentiation assessed as decrease in IL-17 production measured after 5 days by MSD assay; format: functional, cell-based; details: time 5.0 day
Th2 cell [3] = assay: Inhibition of human naive Th2 cell differentiation assessed as decrease in IL-5 production measured after 5 days by MSD assay; format: functional, cell-based; details: time 5.0 day
Th2 cell [4] = assay: Inhibition of human naive Th2 cell differentiation assessed as decrease in IL-13 production measured after 5 days by MSD assay; format: functional, cell-based; details: time 5.0 day
[5] = Toxicity in human naive Th1 cell assessed as reduction in cell viability at 1 to 10000 nM; format: cell-based; details: 10 µM, dose 1-10000 nM
[6] = Toxicity in human naive Th2 cell assessed as reduction in cell viability at 1 to 10000 nM; format: cell-based; details: 10 µM, dose 1-10000 nM
[7] = Toxicity in human memory-derived Th17 cells assessed as reduction in cell viability at 1 to 10000 nM; format: cell-based; details: th17, 10 µM, dose 1-10000 nM
[8] = Inhibition of JAK/STAT signaling pathway in human CD4+ T cell assessed as inhibition of IL-4 stimulated STAT6 phosphorylation preincubated for 20 to 60 mins followed by IL-4 stimulation measured after 15 mins by flow cytometry analysis; format: cell-based
CD14-positive cell = assay: Inhibition of JAK/STAT signaling pathway in human CD14-positive cell monocytes isolated from human PBMC assessed as inhibition of IL-13 stimulated STAT6 phosphorylation preincubated for 20 to 60 mins followed by IL-13 stimulation measured after 15 mins by flow cytometry analysis; format: cell-based; details: time 35-75 min
[9] = biological target: T1, Tyrosine-protein kinase JAK1 (Homo sapiens, UniProt P23458); assay: Inhibition of JAK1 in human CD14-positive cell monocytes isolated from human PBMC assessed as reduction in mature dendritic phenotype by measuring CD14 expression level at 100 nM measured after 5 days by CD14 APC staining based flow cytometry analysis; details: time 5.0 day
[10] = biological target: T1, Tyrosine-protein kinase JAK1; assay: Inhibition of JAK1 in human CD14-positive cell monocytes isolated from human PBMC assessed as reduction in mature dendritic phenotype by measuring CD11c expression level at 100 nM measured after 5 days by CD11c PE-CF594 staining based flow cytometry analysis; details: time 5.0 day
[11] = Distribution coefficient between 1-Octanol and aqueous phosphate buffer, logD of the compound at pH 7.4 by shake-flask method; format: physicochemical; details: 1-octanol/aqueous phosphate buffer, read-out: logD
[12] = Solubility in phosphate buffer at pH 7.4; format: physicochemical
[13] = Plasma protein binding in human assessed as free fraction; format: ADME, cell-free
[14] = biological target: T1, Tyrosine-protein kinase JAK1; assay: Inhibition of N-terminal GST-tagged human recombinant JAK1 (866 to 1154 residues) expressed in insect cells using FITC-C6-KKHTDDGYMPMSPGVA-NH peptide as substrate incubated for 10 mins measured after 90 mins in presence of ATP by caliper mobility shift assay
[15] = Inhibition of JAK/STAT signaling pathway in human U-937 cells assessed as inhibition of IL-4 stimulated STAT6 phosphorylation; format: cell-based
[16] = Inhibition of JAK/STAT signaling pathway in human U-937 cells assessed as inhibition of IL-13 stimulated STAT6 phosphorylation; format: cell-based
[17] = Thermodynamic solubility of the compound in phosphate buffer at pH 7.4 measured after 24 hrs by HPLC-MS analysis; format: physicochemical; details: read-out: Therm_solubility
[18] = Apparent permeability of compound across apical to basolateral side in human Caco-2 cells at pH 7.4; format: ADME, cell-based; details: Caco-2, pH 7.4
[19] = Efflux ratio of apparent permeability across apical to basolateral side in human Caco-2 cells at pH 7.4; format: ADME, cell-based; details: Caco-2, pH 7.4
[20] = Volume of distribution at steady state in Han Wistar rat at 0.5 mg/kg, iv; format: ADME, organism-based; details: in vivo, read-out: Vdss
[21] = Drug uptake in lung of rat at 0.020 micromol/kg, IT; format: ADME, tissue-based; details: in vivo, other, dose 0.02 µmol/kg
[22] = AUC(0 to 24 hrs) in rat at 0.020 micromol/kg, IT; format: ADME; parameters: dose 0.02 µmol/kg, route it; details: in vivo, 0.02 µmol/kg
[23] = biological target: Tyrosine-protein kinase JAK2 (Homo sapiens, UniProt O60674); assay: Inhibition of N-terminal GST-tagged human recombinant JAK2 (831 to 1132 residues) expressed in insect cells using 5FAM-GEEPLYWSFPAKKK-NH2 peptide as substrate incubated for 10 mins measured after 90 mins in presence of ATP by caliper mobility shift assay
[24] = biological target: T2, Tyrosine-protein kinase JAK3 (Homo sapiens, UniProt P52333); assay: Inhibition of N-terminal GST-tagged human recombinant JAK3 (781 to 1124 residues) expressed in insect cells using 5FAM-GEEPLYWSFPAKKK-NH2 peptide as substrate incubated for 10 mins measured after 90 mins in presence of ATP by caliper mobility shift assay
T2 sequence (P52333 whole entry): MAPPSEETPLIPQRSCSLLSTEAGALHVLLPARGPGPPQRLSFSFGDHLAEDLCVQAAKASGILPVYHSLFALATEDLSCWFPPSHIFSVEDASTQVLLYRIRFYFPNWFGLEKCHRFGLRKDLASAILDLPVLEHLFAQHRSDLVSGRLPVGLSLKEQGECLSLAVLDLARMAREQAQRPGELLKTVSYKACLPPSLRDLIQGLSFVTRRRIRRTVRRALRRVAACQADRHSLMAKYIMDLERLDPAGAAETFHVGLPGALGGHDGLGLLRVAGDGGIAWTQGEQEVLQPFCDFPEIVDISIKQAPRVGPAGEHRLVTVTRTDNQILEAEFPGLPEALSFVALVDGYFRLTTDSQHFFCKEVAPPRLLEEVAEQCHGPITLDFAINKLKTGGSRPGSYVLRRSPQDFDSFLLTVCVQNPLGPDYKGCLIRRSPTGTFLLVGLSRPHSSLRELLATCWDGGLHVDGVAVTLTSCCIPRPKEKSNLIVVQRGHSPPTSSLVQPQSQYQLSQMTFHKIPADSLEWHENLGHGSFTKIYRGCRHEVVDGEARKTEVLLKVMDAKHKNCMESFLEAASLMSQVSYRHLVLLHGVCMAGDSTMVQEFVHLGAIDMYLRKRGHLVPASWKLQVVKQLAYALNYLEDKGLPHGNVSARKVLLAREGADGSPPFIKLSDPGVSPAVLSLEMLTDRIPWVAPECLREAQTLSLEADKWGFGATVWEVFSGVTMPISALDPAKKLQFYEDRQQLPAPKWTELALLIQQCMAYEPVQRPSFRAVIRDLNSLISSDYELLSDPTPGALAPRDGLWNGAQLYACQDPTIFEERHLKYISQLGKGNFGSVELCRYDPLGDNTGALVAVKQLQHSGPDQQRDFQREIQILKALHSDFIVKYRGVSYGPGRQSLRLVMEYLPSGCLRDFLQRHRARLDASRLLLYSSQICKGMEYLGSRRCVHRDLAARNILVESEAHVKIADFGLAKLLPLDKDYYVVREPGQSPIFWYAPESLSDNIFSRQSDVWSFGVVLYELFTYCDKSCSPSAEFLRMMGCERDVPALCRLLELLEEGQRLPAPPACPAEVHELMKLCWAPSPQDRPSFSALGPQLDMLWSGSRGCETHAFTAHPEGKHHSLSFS

T1 sequence (P23458 whole entry): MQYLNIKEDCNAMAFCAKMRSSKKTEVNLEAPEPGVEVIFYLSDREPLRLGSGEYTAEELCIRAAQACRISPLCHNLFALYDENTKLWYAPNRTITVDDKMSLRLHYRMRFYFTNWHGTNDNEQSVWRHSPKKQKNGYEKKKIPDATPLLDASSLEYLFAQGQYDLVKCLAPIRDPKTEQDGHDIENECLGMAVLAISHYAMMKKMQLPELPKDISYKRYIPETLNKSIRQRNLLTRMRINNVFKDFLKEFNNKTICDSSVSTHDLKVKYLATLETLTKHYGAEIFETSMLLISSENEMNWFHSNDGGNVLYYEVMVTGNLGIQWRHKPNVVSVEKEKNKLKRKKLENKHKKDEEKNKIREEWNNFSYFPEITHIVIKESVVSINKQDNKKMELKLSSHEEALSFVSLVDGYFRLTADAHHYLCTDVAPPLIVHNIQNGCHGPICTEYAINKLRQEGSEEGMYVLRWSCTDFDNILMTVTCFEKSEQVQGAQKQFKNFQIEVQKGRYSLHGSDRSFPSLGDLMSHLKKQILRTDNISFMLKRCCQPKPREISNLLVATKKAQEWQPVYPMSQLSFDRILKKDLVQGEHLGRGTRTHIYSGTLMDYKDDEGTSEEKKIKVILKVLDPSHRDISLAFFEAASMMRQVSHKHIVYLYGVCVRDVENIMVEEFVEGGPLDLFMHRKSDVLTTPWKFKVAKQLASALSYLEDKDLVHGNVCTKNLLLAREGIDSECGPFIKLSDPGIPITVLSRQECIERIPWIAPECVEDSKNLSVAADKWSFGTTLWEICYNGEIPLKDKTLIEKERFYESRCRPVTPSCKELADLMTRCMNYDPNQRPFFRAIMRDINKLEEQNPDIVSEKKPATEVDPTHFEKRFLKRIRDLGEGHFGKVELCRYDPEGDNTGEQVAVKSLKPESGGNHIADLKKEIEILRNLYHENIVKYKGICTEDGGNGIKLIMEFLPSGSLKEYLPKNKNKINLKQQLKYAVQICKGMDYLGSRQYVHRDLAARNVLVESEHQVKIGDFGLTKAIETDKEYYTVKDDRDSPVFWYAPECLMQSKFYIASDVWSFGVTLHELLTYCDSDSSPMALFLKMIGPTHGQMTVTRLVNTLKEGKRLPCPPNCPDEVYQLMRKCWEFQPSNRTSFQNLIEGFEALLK
Tyrosine-protein kinase JAK2, sequence (O60674 whole entry, the tested form may be a part): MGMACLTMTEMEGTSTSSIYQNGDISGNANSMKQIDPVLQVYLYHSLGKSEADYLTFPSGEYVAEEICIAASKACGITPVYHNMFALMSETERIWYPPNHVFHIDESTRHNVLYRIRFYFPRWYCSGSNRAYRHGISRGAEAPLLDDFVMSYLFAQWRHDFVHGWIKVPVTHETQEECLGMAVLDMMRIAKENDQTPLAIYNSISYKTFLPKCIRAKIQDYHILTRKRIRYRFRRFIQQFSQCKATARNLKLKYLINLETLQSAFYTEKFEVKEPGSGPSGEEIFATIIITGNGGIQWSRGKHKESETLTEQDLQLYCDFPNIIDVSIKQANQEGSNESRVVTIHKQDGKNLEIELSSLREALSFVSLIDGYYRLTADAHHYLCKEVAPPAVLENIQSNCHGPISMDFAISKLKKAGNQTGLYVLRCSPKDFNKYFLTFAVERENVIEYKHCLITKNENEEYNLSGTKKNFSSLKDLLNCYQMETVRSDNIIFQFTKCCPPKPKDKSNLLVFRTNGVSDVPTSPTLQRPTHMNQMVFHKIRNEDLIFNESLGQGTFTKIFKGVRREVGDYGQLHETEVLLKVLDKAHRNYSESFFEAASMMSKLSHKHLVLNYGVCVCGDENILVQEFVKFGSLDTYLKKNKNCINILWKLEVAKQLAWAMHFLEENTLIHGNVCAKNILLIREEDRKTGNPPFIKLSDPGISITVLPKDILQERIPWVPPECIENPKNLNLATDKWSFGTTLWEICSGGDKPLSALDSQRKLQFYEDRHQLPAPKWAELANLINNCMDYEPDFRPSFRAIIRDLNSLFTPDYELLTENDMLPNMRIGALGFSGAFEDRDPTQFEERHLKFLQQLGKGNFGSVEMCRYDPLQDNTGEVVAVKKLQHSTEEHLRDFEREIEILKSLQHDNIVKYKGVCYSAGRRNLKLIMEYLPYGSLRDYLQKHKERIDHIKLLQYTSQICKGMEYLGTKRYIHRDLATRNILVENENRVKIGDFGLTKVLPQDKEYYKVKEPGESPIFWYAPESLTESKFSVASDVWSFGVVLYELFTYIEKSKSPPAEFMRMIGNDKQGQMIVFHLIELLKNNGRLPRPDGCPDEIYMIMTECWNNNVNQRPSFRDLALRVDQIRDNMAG

Structure (SMILES): C=CC(=O)Nc1cc(-c2ncnc3[nH]cc(C(=O)OCC)c23)ccc1C
- Activity [1]: Dose-Dependent Effect
- Activity (CD4+ T cell): Dose-Dependent Effect
- inhibition (Th1 cell): Dose-Dependent Effect
- inhibition (Th2 cell [2]): Dose-Dependent Effect
- inhibition (Th17): Dose-Dependent Effect
- inhibition (Th2 cell [3]): Dose-Dependent Effect
- inhibition (Th2 cell [4]): Dose-Dependent Effect
- Activity [5]: Non-Toxic
- Activity [6]: Non-Toxic
- Activity [7]: Non-Toxic
- IC50 [8]: 134 nM
- inhibition (CD14-positive cell): inactive
- Activity [9]: Active
- Activity [10]: Active

Structure (SMILES): Cc1cnc(Nc2cccc(S(C)(=O)=O)c2F)nc1-c1c[nH]c2c(NC(=O)[C@@H](C)N3CCN(C)CC3)cccc12
- logD [11]: 2.5
- solubility [12]: 15 µM (≈ 8.49 µg/mL)
- fraction unbound [13]: 0.06
- IC50 [14]: ≤ 4 nM
- IC50 [15]: 22 nM
- IC50 [16]: 32 nM
- solubility thermodynamic at 24 h [17]: 15 µM (≈ 8.49 µg/mL)
- Papp A→B [18]: 4.5 ×10⁻⁶ cm/s
- efflux ratio [19]: 4.9
- Vd [20]: 9.2 L/kg
- Drug uptake [21]: Active
- AUC(0-t) [22]: 1.5 µM·h

Structure (SMILES): C[C@H](C(=O)Nc1cccc2c(-c3nc(Nc4cccc(S(C)(=O)=O)c4F)ncc3F)c[nH]c12)N1CCN(C)CC1
- logD [11]: 2.7
- solubility [12]: 14 µM (≈ 7.97 µg/mL)
- fraction unbound [13]: 0.06
- IC50 [14]: 20 nM
- IC50 [23]: 17.5 µM
- IC50 [24]: > 30 µM
- IC50 [15]: 42 nM
- IC50 [16]: 56 nM

Structure (SMILES): CC[C@H](C(=O)Nc1cccc2c(-c3nc(Nc4cccc(S(C)(=O)=O)c4F)ncc3F)c[nH]c12)N1CCN(C)CC1
- logD [11]: 3.3
- solubility [12]: 9 µM (≈ 5.25 µg/mL)
- fraction unbound [13]: 0.05
- IC50 [14]: ≤ 3 nM
- IC50 [15]: 27 nM
- IC50 [16]: 43 nM
